What follows are molecules tested against T1, Angiotensin II receptor (Bos taurus, UniProt P25104) (assay: Inhibitory effect on binding of angiotensin II to angiotensin receptor (125I-AII radioligand binding, membrane fractions)). Conditions: A II receptor membrane fraction from bovine adrenal cortex, room temperature, one hour, compound 10^-9-3x10^-5 M, read-out: Inhibitory Activity against Binding of Angiotensin II IC50.
T1 construct: Angiotensin II receptor membrane fractions were prepared from bovine adrenal cortex; from tissue; host or cells: bovine adrenal cortex membrane fraction
T1 sequence (P25104 1-359): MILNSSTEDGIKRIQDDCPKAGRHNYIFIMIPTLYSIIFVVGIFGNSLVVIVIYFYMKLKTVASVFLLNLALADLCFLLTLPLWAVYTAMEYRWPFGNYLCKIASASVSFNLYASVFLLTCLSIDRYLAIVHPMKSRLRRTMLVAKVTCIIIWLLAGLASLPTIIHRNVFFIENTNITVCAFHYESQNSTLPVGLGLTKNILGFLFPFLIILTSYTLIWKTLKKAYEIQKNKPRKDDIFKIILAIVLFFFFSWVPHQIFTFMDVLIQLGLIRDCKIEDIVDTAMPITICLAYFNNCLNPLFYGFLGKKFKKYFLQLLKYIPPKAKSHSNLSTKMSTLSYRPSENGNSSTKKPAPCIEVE
Protocol: Inhibitory assay for the binding of angiotensin II to angiotensin receptor was conducted by modifying a method as described by Douglas et al. (Endocrinology, 102, 685-696 (1978)).
Angiotensin II receptor membrane fractions were prepared from bovine adrenal cortex.
The compound (I) of the present invention (10^-9-3x10^-5 M) and […] (^125I-AII) (1.8kBq/50µl) were added to the A II receptor membrane fraction and incubated at room temperature for one hour. The bound and free ^125I-AII were separated by a filter (Whatman GF/B filter) each other. The radioactivity of ^125I-All bound on the receptor was measured.

| IC50 [nM] | SMILES |
| --- | --- |
| 280 | CCCCc1nc2c(c(=O)n(C)c(=O)n2C)n1Cc1ccc(-c2ccccc2-c2nnn[nH]2)cc1 [Compound 1] |
| 49 | CCOc1nc2c(c(=O)n(C)c(=O)n2C)n1Cc1ccc(-c2ccccc2-c2nnn[nH]2)cc1 [Compound 2, 8-Ethoxy-1,3-dimethyl-7-[[2'-(1 H-tetrazole-5-yl)-biphenyl-4-yl)methyl)xanthine] |
| 62 | CCCCCc1nc2c(c(=O)n(C)c(=O)n2C)n1Cc1ccc(-c2ccccc2C(=O)O)cc1 [Compound 4, 7-(2'-Carboxybiphenyl-4-yl)methyl-8-n-pentyl-1,3-dimethylxanthine] |
| 170 | CCCc1nc2c(c(=O)n(C)c(=O)n2C)n1Cc1ccc(-c2ccccc2-c2nn[nH]n2)cc1 [Compound 5] |
| 65 | Cn1c(=O)c2c(nc(-c3ccccc3)n2Cc2ccc(-c3ccccc3-c3nn[nH]n3)cc2)n(C)c1=O [Compound 7] |
| 600 | Cn1c(=O)c2c(nc(C3CC3)n2Cc2ccc(-c3ccccc3-c3nn[nH]n3)cc2)n(C)c1=O [Compound 8] |
| 940 | Cn1c(=O)c2c(nc(C3CCCC3)n2Cc2ccc(-c3ccccc3-c3nn[nH]n3)cc2)n(C)c1=O [Compound 9] |
| 3400 | Cn1c(=O)c2c(nc(Cc3ccccc3)n2Cc2ccc(-c3ccccc3-c3nn[nH]n3)cc2)n(C)c1=O [Compound 10] |
| 330 | CC(Cc1nc2c(c(=O)n(C)c(=O)n2C)n1Cc1ccc(-c2ccccc2-c2nn[nH]n2)cc1)c1ccccc1 (stereo not shown) [Compound 12] |
| 49 | CCCCc1nc2c(c(=O)n(C)c(=S)n2C)n1Cc1ccc(-c2ccccc2-c2nn[nH]n2)cc1 [Compound 13] |
| 330 | Cn1c(=O)c2c(nc(CCCCc3ccccc3)n2Cc2ccc(-c3ccccc3-c3nn[nH]n3)cc2)n(C)c1=O [Compound 14] |
| 150 | CC(C)Cc1nc2c(c(=O)n(C)c(=O)n2C)n1Cc1ccc(-c2ccccc2-c2nn[nH]n2)cc1 [Compound 15] |
| 760 | CCCCSc1nc2c(c(=S)n(C)c(=O)n2C)n1Cc1ccc(-c2ccccc2-c2nn[nH]n2)cc1 [Compound 17] |
| 1500 | CCCSc1nc2c(c(=S)n(C)c(=O)n2C)n1Cc1ccc(-c2ccccc2-c2nn[nH]n2)cc1 [Compound 19] |
| 1500 | CCCSc1nc2c(c(=O)n(C)c(=S)n2C)n1Cc1ccc(-c2ccccc2-c2nn[nH]n2)cc1 [Compound 20] |
| 560 | CCCc1nc2c(c(=O)n(CC)c(=O)n2CCC)n1Cc1ccc(-c2ccccc2-c2nn[nH]n2)cc1 [Compound 21] |
| 840 | CCCCc1nc2c(c(=O)n(CC)c(=O)n2CCC)n1Cc1ccc(-c2ccccc2-c2nn[nH]n2)cc1 [Compound 22] |
| 1100 | CCCCc1nc2c(c(=O)n(CCC)c(=O)n2CCC)n1Cc1ccc(-c2ccccc2-c2nn[nH]n2)cc1 [Compound 23] |
| 560 | CCCCSc1nc2c(c(=O)n(CCC)c(=O)n2CCC)n1Cc1ccc(-c2ccccc2-c2nnn[nH]2)cc1 [Compound 25] |
| 2000 | CCCCSc1nc2c(c(=O)n(CC)c(=O)n2CCC)n1Cc1ccc(-c2ccccc2-c2nnn[nH]2)cc1 [Compound 26] |
| 2100 | CCCCc1nc2c(c(=O)n(CCCC)c(=O)n2CCCC)n1Cc1ccc(-c2ccccc2-c2nnn[nH]2)cc1 [Compound 27] |
| 190 | CCCCc1nc2c(c(=O)n(CCC)c(=O)n2CCCC)n1Cc1ccc(-c2ccccc2-c2nnn[nH]2)cc1 [Compound 28] |
| 1000 | CCCCc1nc2c(c(=O)n(CCCC)c(=O)n2C)n1Cc1ccc(-c2ccccc2-c2nnn[nH]2)cc1 [Compound 29] |
| 380 | CCC=CCc1nc2c(c(=O)n(CCC)c(=O)n2CCC)n1Cc1ccc(-c2ccccc2-c2nnn[nH]2)cc1 [Compound 30] |
| 110 | CCCCc1nc2c(c(=O)n(CC)c(=O)n2CC)n1Cc1ccc(-c2ccccc2-c2nnn[nH]2)cc1 [Compound 31] |
| 280 | CCCCSc1nc2c(c(=O)n(C)c(=O)n2C)n1Cc1ccc(-c2ccccc2C(=O)O)cc1 [Compound 33] |
| 130 | CCCCSc1nc2c(c(=O)n(C)c(=O)n2C)n1Cc1ccc(-c2ccccc2-c2nnn[nH]2)cc1 [Compound 34] |
| 1100 | CCOc1nc2c(c(=O)n(CC)c(=O)n2CC)n1Cc1ccc(-c2ccccc2-c2nnn[nH]2)cc1 [Compound 35] |
